Experiment [1] deals with T1, Retinoic acid receptor alpha (Homo sapiens, UniProt P10276).
T1 sequence (P10276 whole entry): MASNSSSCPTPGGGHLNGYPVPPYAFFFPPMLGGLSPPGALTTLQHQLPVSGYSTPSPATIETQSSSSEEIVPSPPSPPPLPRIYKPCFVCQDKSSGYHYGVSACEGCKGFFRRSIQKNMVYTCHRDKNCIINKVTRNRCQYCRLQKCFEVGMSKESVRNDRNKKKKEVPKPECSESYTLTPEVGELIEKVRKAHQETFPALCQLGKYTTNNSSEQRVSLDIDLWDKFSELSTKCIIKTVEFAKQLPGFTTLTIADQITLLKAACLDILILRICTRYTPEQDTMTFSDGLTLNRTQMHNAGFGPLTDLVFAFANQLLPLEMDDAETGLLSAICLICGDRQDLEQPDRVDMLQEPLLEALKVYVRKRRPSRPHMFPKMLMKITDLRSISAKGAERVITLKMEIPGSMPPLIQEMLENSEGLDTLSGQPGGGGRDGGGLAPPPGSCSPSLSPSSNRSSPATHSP
Nature of the experiment: Effective concentration against retinoid receptor isoform (RAR alpha) expressed in CV-1 cells. Format: cell-based.

In experiment [2] the target is T1, Retinoic acid receptor alpha. Nature of the experiment: Inhibition of [3H]ATRA binding to baculovirus expressed retinoid receptor RAR alpha.
Experiment [3] has as its target T2, Retinoic acid receptor RXR-beta (Mus musculus, UniProt P28704).
T2 sequence (P28704 whole entry): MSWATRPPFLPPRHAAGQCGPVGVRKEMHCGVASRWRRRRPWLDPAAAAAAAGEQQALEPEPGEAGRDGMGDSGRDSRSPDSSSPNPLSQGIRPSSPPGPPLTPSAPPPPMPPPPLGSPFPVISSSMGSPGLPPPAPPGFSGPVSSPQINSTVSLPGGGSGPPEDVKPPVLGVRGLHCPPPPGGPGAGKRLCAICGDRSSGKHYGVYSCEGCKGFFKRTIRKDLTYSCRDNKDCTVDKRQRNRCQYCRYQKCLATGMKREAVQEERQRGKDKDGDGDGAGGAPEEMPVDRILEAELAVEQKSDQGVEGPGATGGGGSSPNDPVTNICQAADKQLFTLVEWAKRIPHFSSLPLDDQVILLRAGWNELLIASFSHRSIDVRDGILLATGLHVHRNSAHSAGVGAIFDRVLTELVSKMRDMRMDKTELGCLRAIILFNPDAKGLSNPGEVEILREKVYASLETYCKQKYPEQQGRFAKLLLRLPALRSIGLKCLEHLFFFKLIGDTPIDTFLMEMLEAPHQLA
Put plainly: Effective concentration against retinoid receptor isoform (RXR beta) expressed in CV-1 cells. It is filed as cell-based.

Experiment [4] deals with T3, Retinoic acid receptor RXR-gamma (Mus musculus, UniProt P28705).
T3 sequence (P28705 whole entry): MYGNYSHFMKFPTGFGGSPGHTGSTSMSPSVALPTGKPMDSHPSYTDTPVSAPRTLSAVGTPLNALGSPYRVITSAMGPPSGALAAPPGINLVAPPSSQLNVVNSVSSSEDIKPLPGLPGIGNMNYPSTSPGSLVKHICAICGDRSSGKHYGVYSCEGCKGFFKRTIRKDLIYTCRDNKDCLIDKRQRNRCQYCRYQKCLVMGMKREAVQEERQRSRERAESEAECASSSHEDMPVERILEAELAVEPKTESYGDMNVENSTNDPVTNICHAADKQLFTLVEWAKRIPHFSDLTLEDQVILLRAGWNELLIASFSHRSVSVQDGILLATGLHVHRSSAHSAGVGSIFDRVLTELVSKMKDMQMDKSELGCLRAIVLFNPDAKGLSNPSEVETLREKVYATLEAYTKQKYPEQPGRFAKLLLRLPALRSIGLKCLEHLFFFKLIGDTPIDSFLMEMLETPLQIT
Put plainly: Effective concentration against retinoid receptor isoform (RXR gamma) expressed in CV-1 cells. Format: cell-based.

The target in experiment [5] is T4, Retinoic acid receptor gamma (Homo sapiens, UniProt P13631).
T4 sequence (P13631 whole entry): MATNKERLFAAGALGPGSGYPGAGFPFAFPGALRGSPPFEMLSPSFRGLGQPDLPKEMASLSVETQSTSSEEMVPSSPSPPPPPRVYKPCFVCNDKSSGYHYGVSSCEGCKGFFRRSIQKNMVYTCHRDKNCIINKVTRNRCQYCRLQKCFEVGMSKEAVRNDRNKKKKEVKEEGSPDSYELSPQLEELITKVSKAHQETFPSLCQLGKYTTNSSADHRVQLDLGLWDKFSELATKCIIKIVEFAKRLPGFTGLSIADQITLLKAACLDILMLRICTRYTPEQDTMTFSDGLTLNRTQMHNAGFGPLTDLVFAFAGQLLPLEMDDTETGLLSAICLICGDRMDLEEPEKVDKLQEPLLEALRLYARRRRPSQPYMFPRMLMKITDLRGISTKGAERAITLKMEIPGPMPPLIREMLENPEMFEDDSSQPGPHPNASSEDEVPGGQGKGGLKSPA
Put plainly: Tested for binding affinity against [3H]-ATRA binding to retinoid receptor isoform (RAR gamma) expressed in baculovirus.

The target of experiment [6] is T3, Retinoic acid receptor RXR-gamma. Nature of the experiment: Inhibition of [3H]9-cis-RA binding to baculovirus expressed retinoid receptor RXR gamma.
Experiment [7] deals with T5, Retinoic acid receptor beta (Homo sapiens, UniProt P10826).
T5 sequence (P10826 whole entry): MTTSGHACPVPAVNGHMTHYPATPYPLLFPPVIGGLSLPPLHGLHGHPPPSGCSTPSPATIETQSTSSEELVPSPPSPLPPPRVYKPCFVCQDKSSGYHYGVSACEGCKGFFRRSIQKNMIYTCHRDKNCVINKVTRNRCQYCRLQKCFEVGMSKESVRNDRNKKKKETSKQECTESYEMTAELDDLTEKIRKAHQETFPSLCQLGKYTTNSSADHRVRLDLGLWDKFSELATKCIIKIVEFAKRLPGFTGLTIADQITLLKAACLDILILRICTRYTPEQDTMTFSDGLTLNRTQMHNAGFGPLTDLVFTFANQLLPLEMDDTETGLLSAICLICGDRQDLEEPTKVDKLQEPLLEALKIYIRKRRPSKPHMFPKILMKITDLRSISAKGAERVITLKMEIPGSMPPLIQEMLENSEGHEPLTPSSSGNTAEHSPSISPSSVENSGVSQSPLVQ
Nature of the experiment: Effective concentration against retinoid receptor isoform (RAR beta) expressed in CV-1 cells. Format: cell-based.

Experiment [8] addresses T4, Retinoic acid receptor gamma. Nature of the experiment: Effective concentration against retinoid receptor isoform (RAR gamma) expressed in CV-1 cells. Format: cell-based.
Experiment [9] has as its target T2, Retinoic acid receptor RXR-beta. Nature of the experiment: Inhibition of [3H]9-cis-RA binding to baculovirus expressed retinoid receptor RXR beta.
Experiment [10] addresses T6, Retinoic acid receptor RXR-alpha (Homo sapiens, UniProt P19793).
T6 sequence (P19793 whole entry): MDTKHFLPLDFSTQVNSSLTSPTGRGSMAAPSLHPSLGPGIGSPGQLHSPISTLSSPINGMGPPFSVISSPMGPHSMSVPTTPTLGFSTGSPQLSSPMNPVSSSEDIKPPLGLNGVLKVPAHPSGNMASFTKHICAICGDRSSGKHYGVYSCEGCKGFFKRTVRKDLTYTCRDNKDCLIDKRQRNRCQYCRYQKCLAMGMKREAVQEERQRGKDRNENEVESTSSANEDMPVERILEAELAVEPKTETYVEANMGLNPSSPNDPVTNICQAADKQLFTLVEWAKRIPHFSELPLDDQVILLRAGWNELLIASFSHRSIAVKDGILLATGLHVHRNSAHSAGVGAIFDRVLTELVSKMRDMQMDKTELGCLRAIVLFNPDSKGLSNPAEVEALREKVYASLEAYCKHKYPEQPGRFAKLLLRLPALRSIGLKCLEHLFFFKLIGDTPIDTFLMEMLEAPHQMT
Description: Inhibition of [3H]9-cis-RA binding to baculovirus expressed retinoid receptor RXR alpha

Experiment [11] concerns the target T5, Retinoic acid receptor beta. Put plainly: Inhibition of [3H]ATRA binding to baculovirus expressed retinoid receptor RAR beta.
Experiment [12] has as its target T6, Retinoic acid receptor RXR-alpha. The source holds these as a separate data set.
Description: Effective concentration against retinoid receptor isoform (RXR alpha) expressed in CV-1 cells
The target of experiment [13] is T1, Retinoic acid receptor alpha. Nature of the experiment: Inhibition of [3H]-ATRA binding to baculovirus expressed retinoid receptor RAR alpha.

Broadly, the EC50 is the concentration needed to bring the measured effect to its halfway point. A lower EC50 goes with an effect from little substance. In general, Kd refers to the equilibrium constant for the complex coming apart. A high value points to weaker binding.

With `C=C(c1ccc(C(=O)O)cc1)c1cc2c(cc1OC)C(C)(C)CCC2(C)C`, the EC50 is over 10000 nM in experiment [1]; 198 nM in experiment [3]; 230 nM in experiment [4]; over 10000 nM in [7]; over 10000 nM in [8]; 83 nM in [12]. In addition, the Kd in experiment [2] is over 1000 nM; in experiment [5], over 1000 nM; in [6] it was 113 nM; in experiment [9], 191 nM; in [10], 96 nM; in [11] it was over 1000 nM.

`CC1(C)CCC(C)(C)c2cc(C(=O)c3ccc(C(=O)O)cc3)c(Br)cc21`: the Kd in experiment [13] was over 1000 nM; in [5] it was over 1000 nM; in experiment [6], 150 nM; in experiment [9] it was 150 nM; in [10], 105 nM; in experiment [11] it was over 1000 nM. For the same compound, the EC50 in [1] is over 10000 nM; in [3], 120 nM; in [4], 261 nM; in experiment [7] it was over 10000 nM; in experiment [8], over 10000 nM; in [12], 332 nM.

With `COc1cc2c(cc1C(=O)c1ccc(C(=O)O)cc1)C(C)(C)CCC2(C)C`, the Kd in experiment [13], in experiment [5], in experiment [6], in experiment [9], in [10] and in [11] was over 1000 nM each time. Further, the EC50 is over 10000 nM in [1]; 2200 nM in experiment [3]; 2190 nM in experiment [4]; over 10000 nM in [7]; over 10000 nM in experiment [8]; 2020 nM in [12].

For `CC(C)c1cc2c(cc1C(=O)c1ccc(C(=O)O)cc1)C(C)(C)CCC2(C)C`, the Kd in experiment [13] was over 1000 nM; in [5], over 1000 nM; in experiment [6] it was 309 nM; in experiment [9], 155 nM; in experiment [10], 113 nM; in experiment [11], over 1000 nM. Moreover, the EC50 in experiment [1] was over 10000 nM; in experiment [3], 313 nM; in experiment [4], 357 nM; in [7] it was over 10000 nM; in experiment [8], over 10000 nM; in experiment [12], 381 nM.

For the compound `C=C(c1ccc(C(=O)O)cc1)c1cc2c(cc1F)C(C)(C)CCC2(C)C`, the Kd is over 1000 nM in experiment [13]; over 1000 nM in experiment [5]; 94 nM in [6]; 108 nM in experiment [9]; 69 nM in experiment [10]; over 1000 nM in [11]. Besides, the EC50 is over 10000 nM in [1]; 189 nM in [3]; 383 nM in [4]; 337 nM in experiment [7]; 397 nM in experiment [8]; 197 nM in experiment [12].

For the compound `C=C(c1ccc(C(=O)O)cc1)c1cc2c(cc1CC)C(C)(C)CCC2(C)C`, the Kd is over 1000 nM in [13]; over 1000 nM in experiment [5]; 59 nM in [6]; 44 nM in [9]; 31 nM in [10]; over 1000 nM in [11]. Also, the EC50 is over 10000 nM in [1]; 145 nM in experiment [3]; 136 nM in experiment [4]; over 10000 nM in experiment [7]; over 10000 nM in [8]; 115 nM in experiment [12].

Turning to `C=C(c1ccc(C(=O)O)cc1)c1ccc2c(c1)C(C)(C)CCC2(C)C`, the Kd was determined as 944 nM in experiment [13]; 887 nM in [5]; 290 nM in experiment [6]; 199 nM in experiment [9]; 150 nM in [10]; 909 nM in experiment [11]. For the same compound, the EC50 in experiment [1] was over 10000 nM; in [3] it was 486 nM; in experiment [4], 404 nM; in experiment [7], 304 nM; in experiment [8] it was 266 nM; in [12], 409 nM.

(Values after ChEMBL document CHEMBL1127727, “Synthesis and structure-activity relationships of novel retinoid X receptor-selective retinoids” (J Med Chem, 1994).)
